Measured values as given in patent US20250084039A1, “4-SUBSTITUTED AMINOISOQUINOLINE DERIVATIVES” (Purdue Research Foundation, priority 2016, published 2025).

Key:
MV-4-11 = test: Proliferation inhibition at single concentration (CellTiter-Blue); type: cell-based; details: 1 μM compound
HCT116 = test: as above; type: cell-based; details: 1 μM compound
[1] = biological target: ABL1 (T315I) non-phosphorylated (Homo sapiens (Human), UniProt P00519, T315I); test: DiscoverX Kd Elect binding
SRC [2] = biological target: T1, SRC (Homo sapiens (Human), UniProt P12931); test: Inhibition of kinase enzymatic activity (IC50); type: biochemical
FLT3 (ITD, F691L) = FLT3 (ITD, F691L) (Homo sapiens, UniProt P36888, F691L/ITD); test: DiscoverX Kd Elect binding
FYN = FYN (Homo sapiens (Human), UniProt P06241); test: DiscoverX Kd Elect binding
Procedure: (§1) HCK is expressed more in human primary leukemic stem cells than in human normal hematopoietic stem cells. […] Other protein kinases such as SYK, BRAF, p38 (p38MAPK), PDGFRα/β, FGFR1, RET, FLT4, Tie2 have also been linked to leukemia. […] Thus, it was tested if HSN286 and analogs were also targeting kinases that play critical roles in AML. […] (Table 9). The inhibition of the Src-kinase family could be important clinically because these kinases are downstream of FLT3. In the event of FLT3 mutation, the inhibition of the Src-family kinases could still lead to proliferation inhibition.

BLK = BLK (Homo sapiens (Human), UniProt P51451); test: DiscoverX Kd Elect binding
Procedure: as §1

AURKA = AURKA (Homo sapiens (Human), UniProt O14965); test: DiscoverX Kd Elect binding
Procedure: as §1

FAK = FAK (Homo sapiens (Human), UniProt Q05397); test: DiscoverX Kd Elect binding
Procedure: as §1

LYN = LYN (Homo sapiens (Human), UniProt P07948); test: DiscoverX Kd Elect binding
Procedure: as §1

PIK3CA = PIK3CA (Homo sapiens (Human), UniProt P42336); test: DiscoverX Kd Elect binding
Procedure: as §1

PLK1 = PLK1 (Homo sapiens (Human), UniProt P53350); test: DiscoverX Kd Elect binding
Procedure: as §1

KIT = KIT (Homo sapiens (Human), UniProt P10721); test: DiscoverX Kd Elect binding
Procedure: as §1

HCK = HCK (Homo sapiens (Human), UniProt P08631); test: DiscoverX Kd Elect binding
Procedure: as §1

PIM1 = PIM1 (Homo sapiens (Human), UniProt P11309); test: DiscoverX Kd Elect binding
Procedure: as §1

FGR = FGR (Homo sapiens (Human), UniProt P09769); test: DiscoverX Kd Elect binding
Procedure: as §1

SRC [3] = biological target: T1, SRC; test: DiscoverX Kd Elect binding
Procedure: as §1

RIPK3 = RIPK3 (Homo sapiens (Human), UniProt Q9Y572); test: Reaction Biology HotSpot kinase assay; type: biochemical; details: 500 nM compound; read-out: Percentage kinase inhibition RIPK3
Summary of the method: (§2)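 Phosphotransfer from [γ-33P]ATP was quantified after filter binding on P81 paper. Conditions: 20 mM HEPES pH 7.5, 10 mM MgCl2, 0.1 mM Na3VO4, 2 mM DTT, 0.02 mg/mL BSA; ATP 100 μM final; 2 h at room temperature. Compound was dosed at 500 nM.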

FGFR3 = FGFR3 (Homo sapiens (Human), UniProt P22607); test: Reaction Biology HotSpot kinase assay; type: biochemical; details: 500 nM compound; read-out: Percentage kinase inhibition FGFR3
Summary of the method: as §2

MEKK2 = MEKK2 (Homo sapiens (Human), UniProt Q9Y2U5); test: Reaction Biology HotSpot kinase assay; type: biochemical; details: 500 nM compound; read-out: Percentage kinase inhibition MEKK2
Summary of the method: as §2

DNA-PK = DNA-PK (Homo sapiens (Human), UniProt P78527); test: Reaction Biology HotSpot kinase assay; type: biochemical; details: 500 nM compound; read-out: Percentage kinase inhibition DNA-PK
Summary of the method: as §2

MV4-11 = test: In vivo efficacy, NSG mice injected with MV4-11; details: 25 mg/kg, three times per week, NSG mice with MV4-11
Procedure: Method: Six week old female NSG mice were injected intravenously with 1×10^6 logarithmically growing MV4-11 cells expressing luciferase (MV4-11). Luciferase expressing leukemia cells were imaged using the IVIS Xenogen system (Perkin Elmer, Waltham MA). On day of imaging, mice are injected IP with 150 mg/kg luciferin (Perkin Elmer, Waltham, MA), anaesthetized and then placed in imaging chamber. Maximal luminescence is recorded and then averaged among each treatment group. Ten days post cell injection, mice were imaged and then sorted into groups so that leukemic burden was similar and dosing started. Mice were dosed either with vehicle (10% DMSO/10% Tween 20/80% saline) or 25 mg/kg of compounds three times per week for the duration of the experiment. Mice were weighed and observed five days per week and imaged once per week.

[4] = Liver microsomal stability assay; type: in vitro ADME, mouse; details: compared to the other analogs

T1 sequence (P12931 whole entry, looked up): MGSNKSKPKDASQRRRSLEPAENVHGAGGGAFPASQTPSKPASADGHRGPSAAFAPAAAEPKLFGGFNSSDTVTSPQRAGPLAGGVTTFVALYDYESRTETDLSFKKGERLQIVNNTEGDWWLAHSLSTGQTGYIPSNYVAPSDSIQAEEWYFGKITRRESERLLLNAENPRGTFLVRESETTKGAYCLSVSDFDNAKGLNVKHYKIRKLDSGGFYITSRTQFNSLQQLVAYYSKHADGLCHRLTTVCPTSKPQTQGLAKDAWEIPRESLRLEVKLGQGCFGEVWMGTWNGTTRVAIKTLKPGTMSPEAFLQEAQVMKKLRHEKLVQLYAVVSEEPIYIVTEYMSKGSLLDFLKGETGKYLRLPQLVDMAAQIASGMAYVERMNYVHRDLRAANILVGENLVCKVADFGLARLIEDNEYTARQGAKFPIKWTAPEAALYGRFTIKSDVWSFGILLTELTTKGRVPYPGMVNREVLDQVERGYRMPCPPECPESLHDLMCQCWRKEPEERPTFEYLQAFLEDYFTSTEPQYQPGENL
LYN, sequence (P07948 whole entry): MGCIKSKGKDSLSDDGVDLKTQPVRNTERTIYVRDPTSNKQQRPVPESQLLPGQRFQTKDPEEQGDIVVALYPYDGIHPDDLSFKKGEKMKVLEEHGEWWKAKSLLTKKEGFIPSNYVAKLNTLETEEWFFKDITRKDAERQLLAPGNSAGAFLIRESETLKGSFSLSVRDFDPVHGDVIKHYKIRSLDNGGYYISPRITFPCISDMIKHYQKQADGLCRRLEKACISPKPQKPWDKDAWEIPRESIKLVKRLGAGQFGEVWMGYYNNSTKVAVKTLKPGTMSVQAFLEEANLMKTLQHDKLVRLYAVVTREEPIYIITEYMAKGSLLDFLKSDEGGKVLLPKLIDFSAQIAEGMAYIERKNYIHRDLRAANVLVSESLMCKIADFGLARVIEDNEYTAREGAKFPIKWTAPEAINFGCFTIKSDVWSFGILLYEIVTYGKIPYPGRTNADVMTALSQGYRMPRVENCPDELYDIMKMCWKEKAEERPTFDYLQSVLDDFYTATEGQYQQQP
FLT3 (ITD, F691L), sequence (P36888 whole entry, looked up, stated change not applied): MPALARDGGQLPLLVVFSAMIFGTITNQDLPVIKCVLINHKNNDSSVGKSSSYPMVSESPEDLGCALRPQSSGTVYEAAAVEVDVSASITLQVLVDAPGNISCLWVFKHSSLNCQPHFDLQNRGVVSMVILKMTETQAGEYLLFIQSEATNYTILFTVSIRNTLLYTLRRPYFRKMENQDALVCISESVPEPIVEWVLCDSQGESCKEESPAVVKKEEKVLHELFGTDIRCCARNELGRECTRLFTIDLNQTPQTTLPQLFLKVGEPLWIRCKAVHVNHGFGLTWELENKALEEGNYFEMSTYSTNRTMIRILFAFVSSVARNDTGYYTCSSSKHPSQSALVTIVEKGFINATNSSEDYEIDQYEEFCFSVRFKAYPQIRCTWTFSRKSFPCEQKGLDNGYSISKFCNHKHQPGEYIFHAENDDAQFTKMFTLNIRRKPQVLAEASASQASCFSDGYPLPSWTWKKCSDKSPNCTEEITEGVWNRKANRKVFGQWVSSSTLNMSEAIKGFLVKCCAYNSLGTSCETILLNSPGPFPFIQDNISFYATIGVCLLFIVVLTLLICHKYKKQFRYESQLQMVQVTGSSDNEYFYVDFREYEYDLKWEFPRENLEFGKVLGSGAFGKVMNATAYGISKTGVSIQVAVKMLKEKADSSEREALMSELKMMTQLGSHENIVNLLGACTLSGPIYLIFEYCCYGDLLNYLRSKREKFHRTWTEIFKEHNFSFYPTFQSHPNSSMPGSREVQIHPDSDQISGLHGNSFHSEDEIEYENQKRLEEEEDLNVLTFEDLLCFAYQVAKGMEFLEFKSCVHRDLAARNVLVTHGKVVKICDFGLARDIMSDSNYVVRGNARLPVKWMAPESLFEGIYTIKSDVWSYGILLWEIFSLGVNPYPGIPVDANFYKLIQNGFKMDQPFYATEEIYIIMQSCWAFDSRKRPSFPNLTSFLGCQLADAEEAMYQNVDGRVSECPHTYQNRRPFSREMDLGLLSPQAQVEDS
HCK, sequence (P08631 whole entry): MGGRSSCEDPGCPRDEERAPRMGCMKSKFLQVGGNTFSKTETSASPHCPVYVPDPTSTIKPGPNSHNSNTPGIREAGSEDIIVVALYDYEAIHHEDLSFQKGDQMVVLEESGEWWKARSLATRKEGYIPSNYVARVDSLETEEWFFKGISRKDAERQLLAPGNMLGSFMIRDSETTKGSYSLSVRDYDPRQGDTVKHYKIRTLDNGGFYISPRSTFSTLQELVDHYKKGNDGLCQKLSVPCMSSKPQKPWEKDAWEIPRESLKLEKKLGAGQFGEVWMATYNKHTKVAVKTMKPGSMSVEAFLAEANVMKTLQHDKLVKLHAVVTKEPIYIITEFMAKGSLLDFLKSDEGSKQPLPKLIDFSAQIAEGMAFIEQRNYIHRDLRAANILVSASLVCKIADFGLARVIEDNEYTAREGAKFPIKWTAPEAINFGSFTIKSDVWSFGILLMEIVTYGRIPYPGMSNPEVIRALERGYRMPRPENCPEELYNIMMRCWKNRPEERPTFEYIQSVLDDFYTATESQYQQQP
RIPK3, sequence (Q9Y572 whole entry): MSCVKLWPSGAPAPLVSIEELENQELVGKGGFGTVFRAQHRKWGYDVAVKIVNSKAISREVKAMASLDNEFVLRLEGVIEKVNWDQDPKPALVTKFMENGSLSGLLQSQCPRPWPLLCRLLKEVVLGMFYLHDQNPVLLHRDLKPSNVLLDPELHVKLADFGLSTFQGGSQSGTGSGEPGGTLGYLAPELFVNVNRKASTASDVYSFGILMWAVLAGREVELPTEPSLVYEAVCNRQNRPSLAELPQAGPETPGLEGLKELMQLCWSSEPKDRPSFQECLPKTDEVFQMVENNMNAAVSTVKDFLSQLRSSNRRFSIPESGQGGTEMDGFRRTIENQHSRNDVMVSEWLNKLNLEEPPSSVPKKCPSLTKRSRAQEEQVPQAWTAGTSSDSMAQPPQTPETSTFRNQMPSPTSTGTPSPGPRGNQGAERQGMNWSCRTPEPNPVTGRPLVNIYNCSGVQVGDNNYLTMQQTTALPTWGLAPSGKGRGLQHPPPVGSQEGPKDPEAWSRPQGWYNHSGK
PIK3CA, sequence (P42336 whole entry): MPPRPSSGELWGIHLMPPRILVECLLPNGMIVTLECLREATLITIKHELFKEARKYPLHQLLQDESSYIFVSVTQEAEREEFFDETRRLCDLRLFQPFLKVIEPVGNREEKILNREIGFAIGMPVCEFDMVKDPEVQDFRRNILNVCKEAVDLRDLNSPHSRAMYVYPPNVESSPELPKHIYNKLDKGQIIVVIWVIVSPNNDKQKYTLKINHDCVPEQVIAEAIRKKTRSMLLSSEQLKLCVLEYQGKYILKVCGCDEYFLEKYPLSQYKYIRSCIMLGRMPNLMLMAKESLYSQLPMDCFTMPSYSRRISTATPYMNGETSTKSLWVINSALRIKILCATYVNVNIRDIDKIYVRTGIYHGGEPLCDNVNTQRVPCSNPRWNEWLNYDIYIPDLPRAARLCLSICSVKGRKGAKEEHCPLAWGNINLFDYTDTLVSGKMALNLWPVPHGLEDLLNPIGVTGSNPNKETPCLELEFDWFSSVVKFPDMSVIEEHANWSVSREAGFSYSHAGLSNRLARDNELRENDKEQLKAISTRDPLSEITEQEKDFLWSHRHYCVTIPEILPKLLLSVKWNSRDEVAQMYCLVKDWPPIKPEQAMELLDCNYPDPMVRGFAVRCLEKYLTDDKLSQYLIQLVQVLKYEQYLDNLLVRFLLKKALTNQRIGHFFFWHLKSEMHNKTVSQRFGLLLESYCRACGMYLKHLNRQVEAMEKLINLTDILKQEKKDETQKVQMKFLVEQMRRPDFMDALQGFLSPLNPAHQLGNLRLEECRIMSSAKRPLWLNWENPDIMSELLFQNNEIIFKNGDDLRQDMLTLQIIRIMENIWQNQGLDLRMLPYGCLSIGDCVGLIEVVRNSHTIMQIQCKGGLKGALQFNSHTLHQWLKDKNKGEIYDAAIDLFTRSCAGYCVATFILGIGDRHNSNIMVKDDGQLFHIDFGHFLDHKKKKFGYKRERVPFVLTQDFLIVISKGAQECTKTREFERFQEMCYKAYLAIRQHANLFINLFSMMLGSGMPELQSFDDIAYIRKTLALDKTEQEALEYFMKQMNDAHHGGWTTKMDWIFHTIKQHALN
FGFR3, sequence (P22607 23-806): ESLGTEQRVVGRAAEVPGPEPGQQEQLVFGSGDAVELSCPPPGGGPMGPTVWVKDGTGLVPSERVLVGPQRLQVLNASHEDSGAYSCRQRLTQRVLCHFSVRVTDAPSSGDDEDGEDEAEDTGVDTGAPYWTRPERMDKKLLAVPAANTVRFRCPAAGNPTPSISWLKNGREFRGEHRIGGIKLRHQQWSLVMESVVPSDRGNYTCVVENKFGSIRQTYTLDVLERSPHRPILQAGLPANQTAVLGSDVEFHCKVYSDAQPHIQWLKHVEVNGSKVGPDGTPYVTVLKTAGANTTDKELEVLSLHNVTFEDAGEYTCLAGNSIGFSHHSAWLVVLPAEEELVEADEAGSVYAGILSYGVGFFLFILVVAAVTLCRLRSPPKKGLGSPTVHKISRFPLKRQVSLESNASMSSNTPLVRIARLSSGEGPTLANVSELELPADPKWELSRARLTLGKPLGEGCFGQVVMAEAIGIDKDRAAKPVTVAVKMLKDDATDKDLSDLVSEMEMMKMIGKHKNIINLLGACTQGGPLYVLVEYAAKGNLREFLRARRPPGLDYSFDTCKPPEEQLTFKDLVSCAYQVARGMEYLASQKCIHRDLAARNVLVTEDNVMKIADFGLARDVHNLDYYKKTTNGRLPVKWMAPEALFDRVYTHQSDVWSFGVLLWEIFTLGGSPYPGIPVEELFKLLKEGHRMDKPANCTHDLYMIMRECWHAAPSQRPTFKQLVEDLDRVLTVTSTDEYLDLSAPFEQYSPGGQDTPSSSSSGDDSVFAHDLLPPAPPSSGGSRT

## CN(C)CC(O)CNC(=O)c1ccc(C#Cc2c(N)ncc3ccc(Cl)cc23)cc1 (centres unmarked) [HSM1702]
MV-4-11
  Percent inhibition of proliferation MV-4-11: 99%
HCT116
  Percent inhibition of proliferation HCT116: 33%

## Cc1ccc(C(=O)Nc2ccc(CN3CCN(C)CC3)c(C(F)(F)F)c2)cc1C#Cc1cnc(N)c2ncccc12 [HSN356, 3-((8-amino-1,7-naphthyridin-5-yl)ethynyl)-4-methyl-N-(4-((4-methylpiperazin-1-yl)methyl)-3-(trifluoromethyl)phenyl)benzamide]
[1]
  Kd: 2.4 nM
SRC [2]
  IC50: 14.9 nM
FLT3 (ITD, F691L)
  Kd: 28 nM
FYN
  Kd: 38 nM
BLK
  Kd: 1.2 nM
AURKA
  Kd: 5100 nM
FAK
  Kd: 4700 nM
LYN
  Kd: 5.4 nM
PIK3CA
  Kd: > 30000 nM
PLK1
  Kd: 9600 nM
KIT
  Kd: 7.2 nM
HCK
  Kd: 2.5 nM
PIM1
  Kd: 19000 nM
FGR
  Kd: 7.9 nM
SRC [3]
  Kd: 15 nM

## Cc1ccc(C(=O)Nc2ccc(CN3CCN(C)CC3)c(C(F)(F)F)c2)cc1C#Cc1cc(N)nc2ccccc12 [HSN285]
RIPK3
  inhibition at 0.5 µM: 0%
FGFR3
  inhibition at 0.5 µM: 0%
MEKK2
  inhibition at 0.5 µM: 0%

## COc1cc2nc(N)nc(C#Cc3cc(C(=O)Nc4ccc(CN5CCN(C)CC5)c(C(F)(F)F)c4)ccc3C)c2cc1OC [HSN325]
DNA-PK
  inhibition at 0.5 µM: 0%

## Cc1ccc(C(=O)Nc2ccc(CN3CCN(C)CC3)c(C(F)(F)F)c2)cc1C#Cc1c(N)ncc2ccc(Cl)cc12 [HSN286]
[1]
  Kd: 29 nM
SRC [2]
  IC50: 4.5 nM
RIPK3
  inhibition at 0.5 µM: 96%
FGFR3
  inhibition at 0.5 µM: 88%
MEKK2
  inhibition at 0.5 µM: 52%
DNA-PK
  inhibition at 0.5 µM: 0%
MV4-11
  in-vivo efficacy (survival): not efficacious
MV-4-11; Homo sapiens, MV4-11, read-out: Percent inhibition of proliferation MV-4-11
  inhibition at 1 µM: 99%
FLT3 (ITD, F691L)
  Kd: 110 nM
FYN
  Kd: 28 nM
BLK
  Kd: 3.9 nM
AURKA
  Kd: > 30000 nM
FAK
  Kd: 5100 nM
LYN
  Kd: 11 nM
PIK3CA
  Kd: 26000 nM
PLK1
  Kd: > 30000 nM
KIT
  Kd: 42 nM
HCK
  Kd: 3.6 nM
PIM1
  Kd: 11000 nM
FGR
  Kd: 7 nM
SRC [3]
  Kd: 16 nM
[4]
  stability in mouse liver microsomes: preformed much better
HCT116; Homo sapiens, HCT-116, read-out: Percent inhibition of proliferation HCT116
  inhibition at 1 µM: 100%
